From patent publication US20190083508A1, “USE OF OX1R ANTAGONISTS FOR THE TREATMENT OF INFLAMMATORY BOWEL DISEASES” (Inserm (Institut National De La Sante et de la Recherche …, priority 2014, published 2019)
No end group written: not given here.

Tests used:
[1] = system: DSS-treated mice; assay: Length of colon from DSS-treated mice mimicking acute ulcerative colitis; assay type: in vivo; conditions: 5% DSS in drinking water; daily ip 20 μg; one week
Protocol: FIG. 8: Effect of daily ip inoculation of OxA, Suvorexant and Almorexant on the length of colon from DSS- (dextran sulfate sodium) treated mice mimicking the acute ulcerative colitis disease. A. Mice were treated with 5% (w/v) DSS in drinking water and daily injected with 20 μg of OxA (OXA IP), 20 μg of Suvorexant (Suvo) or 20 μg of Almorexant (Almo). Control (wt) or treated DSS mice (DSS) were daily injected with 100 μl PBS. After one week of treatment, mice were sacrificed and the length of colon which represented a good marker of inflammation state, was measured. […] B. quantification of colon length from 5 different DSS-treated mice injected with OxA (DSS+OXA IP), Almorexant (DSS+Almo), Suvorexant (DSS+Suvo) or not injected (WT and DSS). NS, no significant; *, p<0.05; ** p<0.001
The inventors also investigated the effect of daily intraperitoneal inoculation of OxA, Suvorexant and Almorexant on the length of colon from DSS- (dextran sulfate sodium) treated mice mimicking the acute ulcerative colitis disease.

[2] = system: EXCY2 mice; assay: Spontaneous UC-like colitis in EXCY2 mice (IL10-/-; Nox1-/-), colon histology; assay type: in vivo; conditions: 10 week-old EXCY2 mice, 0.22 μmoles/kg, 2 IP/week during 3 weeks
Protocol: FIG. 4: Histological aspect of colon mucosa in OxA treated EXCY2 mice (right) and non-treated EXCY2 mice (left). EXCY2 mice genetically invalidated for IL10 and Nox1 genes (IL10^−/− and Nox1^−/−) which develop spontaneous UC-like disease, were treated with OxA (0.22 μmoles/kg, 2 intraperitoneal injection/week for 21 days) (right) or untreated (left). After animal sacrifice colons were resected and histologic analysis was performed.
DSS mouse model has been extensively used to decipher the mucosal inflammation in IBD, UC pathogenesis, and preclinical studies. However, mice show differential susceptibilities and responsiveness to DSS-induced colitis depending on their genetic background, gender. DSS model is a faithful model of inflammation but departs from Ulcerative Colitis in part for lack of the inflammation gradient from the rectum to the proximal colon usually observed in UC, any deregulation of ER stress in goblet cells known to be an early etiological factor of UC, and no digestive or extra-digestive complications of UC such as cholangitis and colorectal cancer, respectively. The use of genetically modified mice model represents a good alternative to chemically-induced colitis mice model. […]
(§1) Balb/c mice were orally treated by 5% (w/v) of Dextran Sulfate Sodium (DSS) for 7 days. […] Weight and colitis symptoms (diarrhea, blood in the stool . . . ) for each mouse was daily measured. […]

[3] = system: colon adenocarcinoma HT-29 cells; assay: Cell growth determination, HT-29 cells; assay type: cell-based; conditions: 48 hr, 0.1 μM OxA or increasing concentrations of SB408124
Protocol: (§2) FIG. 6: Determination of the inhibition of cellular growth of HEK-OX1R cells and colon adenocarcinoma cells (HT-29) induced by 0.1 μM of OxA or various concentrations of SB408124 antagonist. HEK-OX1R cells (black column) and HT-29 cells (white column) were incubated with 0.1 μM of OxA and indicated increasing concentration of SB408124, and cells were counted after 48 hr incubation. Results are expressed as the percentage of total viable cells.
(§3) HEK-OX1R cells or colon adenocarcinoma HT-29 cells were seeded, grown and maintained at 37° C. in a humidified 5% CO2/air incubator. After 24 hr culture, cells were treated with or without Orexin-A peptide or SB408124 antagonist, previously dissolved in DMSO, to be tested at the concentration indicated in the figure legends. After 48 hr of treatment, adherent cells were harvested by TriplE (Life Technologies, Saint Aubin, France) and manually counted. Apoptosis was determined using the Guava PCA system and the Guava nexin kit.

[4] = system: colon adenocarcinoma HT-29 cells; assay: Apoptosis assay (annexin V-PE binding), HT-29 cells; assay type: cell-based; conditions: 48 h, 1 μM orexin-A or various concentrations of SB408124
Protocol: FIG. 7: Effect of orexin-A and SB408124 antagonist on apoptosis in OX1R expressing colon adenocarcinoma cells, HT-29. HT-29 cells were challenged with 1 μM orexin-A or various concentration of SB408124 for 48 h. Apoptosis was measured by determination of annexin V-PE binding, and results are expressed as the percentage of apoptotic cells. Results are means±SE of three experiments. ***P<0.001.
as §3

[5] = system: HEK-OX1R cells; assay: Cell growth determination, HEK-OX1R cells; assay type: cell-based; conditions: 48 hr, 0.1 μM OxA or increasing concentrations of SB408124
Protocol: as §2, §3

[6] = target: T1, OX1R (Homo sapiens, UniProt O43613); assay: Ca2+ mobilization assay in HEK-OX1R cells (FluoForte); assay type: cell-based
T1 construct: HEK cells expressing recombinant native OX1R (HEK-OX1R); expressed in transfected cells; host or cells: HEK cells (HEK-OX1R)
T1 sequence (O43613 1-425): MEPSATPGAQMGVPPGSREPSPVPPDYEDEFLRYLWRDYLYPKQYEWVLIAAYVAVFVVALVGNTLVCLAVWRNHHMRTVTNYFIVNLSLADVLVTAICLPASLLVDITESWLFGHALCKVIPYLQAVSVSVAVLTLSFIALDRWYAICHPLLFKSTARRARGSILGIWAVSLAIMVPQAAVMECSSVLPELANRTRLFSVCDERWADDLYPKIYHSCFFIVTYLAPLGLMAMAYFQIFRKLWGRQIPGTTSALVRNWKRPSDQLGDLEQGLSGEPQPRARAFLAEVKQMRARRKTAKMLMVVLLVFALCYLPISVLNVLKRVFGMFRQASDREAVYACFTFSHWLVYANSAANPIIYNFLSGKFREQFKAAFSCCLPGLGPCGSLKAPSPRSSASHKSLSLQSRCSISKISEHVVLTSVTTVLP
Protocol: FIG. 5: Effect of orexin-A and SB408124 antagonist on Ca2+ mobilization in HEK-OX1R cells. Top, HEK-OX1R cells were incubated with fluorescence probe (FluoForte) for 45 min. at 37° C. according to FluoForte calcium assay kit (Enzo Life Sciences). 1 μM of OxA was added to cells and fluorescence emission was measured on TECAN Infinite 200 fluorospectrophotometer. Bottom, HEK-OX1R cells were incubated with fluorescence probe (FluoForte) for 45 min. at 37° C. and then incubated with 1 μM of SB408124 for 1 h at 37° C. After pre-incubation, 1 μM of OxA was added to cells and fluorescence emission was measured.
HEK cells expressing recombinant native OX1R (HEK-OX1R) cells were seeded in 96-wells plate, grown and maintained at 37° C. in a humidified 5% CO2/air incubator. 80,000 cells/well were incubated with FluoForte probe according to FluoForte calcium assay kit (ENZO life Sciences, Farmingdale, N.Y., USA) for 45 min. at 37° C. and then incubated with or without 1 μM of […] antagonist for 1 h at 37° C. After pre-incubation, 1 μM of OxA was added and fluorescence was determined using TECAN Infinite 200 fluorospectrophotometer.

[7] = system: DSS-induced colitis mice; assay: Cytokine assays in colon extracts of DSS-induced colitis mice; assay type: in vivo; conditions: daily ip 0.22 μmoles/kg, 7 days
Protocol: FIG. 3: OXA effects on cytokines secretion in DSS-induced colitis mice. Right, Colons of DSS untreated mice (white), DSS treated mice (gray) and DSS treated mice associated to OxA treatment (black) were resected after animal sacrifice. Then, protein extraction was performed by tissue disruption. Cytokines were determined using Cytokine CBA kits (see Material and Methods). Left, after colon resection, RNA were extracted from colonic tissue and qPCR was performed using specific oligonucleotides for IL8 homolog and IL1B.
These observations are confirmed by histologic aspect of colon epithelium (histologic scoring by a GI pathologist). Thus, OxA has probably an anti-inflammatory effect on DSS-induced colitis. To confirm this hypothesis, we have investigated the anti-inflammatory effect of OxA treatment on cytokines secretion in colon extracts from DSS-treated mice. […] In contrast, OxA has no effect on INFγ, IL10, and IL12 cytokine secretion in colon extracts (FIG. 3).
Balb/c mice were orally treated by 5% (w/v) of Dextran Sulfate Sodium (DSS) for 7 days. Orexin treatment was carried out in DSS treated mice by daily intraperitoneal injection of OxA (0.22 μmoles/kg) for 7 days. Weight and colitis symptoms (diarrhea, blood in the stool . . . ) for each mouse was daily measured. After 7 days of treatment, animals were sacrificed and colons were resected to further analyses (size, histological aspect, cytokine assays). […] mice (IL10^−/− and Nox1^−/−) which develop a spontaneous colitis at 6/7 weeks of age were treated or not with OxA (0.22 μmoles/kg, 2 intraperitoneal injection/week for 21 days). After animal sacrifice colons were resected and histologic analysis was performed.
Mice were sacrificed and colons were resected. Proteins were extracted from colon by tissue disruption in PBS using Tissue Lyser (Qiagen, Courtaboeuf, France). Various cytokines (see FIG. 3) were determined using Cytokine CBA kits (BD Sciences, Le Pont de Claix, France).

[8] = system: DSS-induced colitis mice; assay: DSS-induced colitis mice, Disease Activity Index; assay type: in vivo, Balb/c mice; conditions: 5% DSS orally 7 days; daily ip 0.22 μmoles/kg
Source text: FIG. 2: OXA ameliorates the DAI (weight and colitis score) of DSS-induced colitis mice. Mice were orally treated with 5% DSS for 7 days in the presence or in the absence of daily intraperitoneal injection of OxA (0.22 μmoles/kg). Left, determination of gain or loss of weight in the absence of DSS treatment (Control, ▴), in the presence of DSS treatment (DSS, ▪) and in the presence of DSS associated to OxA treatment (DSS+OxA, ●). Right, evaluation of Disease Activity Index (DAI) scored by measuring weight, length of colon, diarrhea and blood presence in the stool in DSS untreated control mice (Control, ▴), in DSS treated mice (DSS, ▪) and in DSS treated mice associated to OxA treatment (DSS+OxA, ●).
Based on these observations, we have investigated the effect of Orexin A (OxA) on acute inflammation in mice treated with Dextran Sulfate Sodium (DSS). OxA was preferentially chosen in these experiments since the presence of two disulphide bridges confers it more stability. DSS induces acute colitis characterized by weight loss, bloody diarrhea, intestinal ulcerations and infiltrations with granulocytes.
as §1

`CNC(=O)[C@@H](c1ccccc1)N1CCc2cc(OC)c(OC)cc2[C@@H]1CCc1ccc(C(F)(F)F)cc1` [Almorexant] was tested. Which “Protection from DSS induced acute ulcerative colitis (colon length)” value (shortened to “Protection”) [1] did it give?
Its value is “protect mice from DSS induced acute ulcerative colitis disease”.

With `Cc1ccc(-n2nccn2)c(C(=O)N2CCN(c3nc4cc(Cl)ccc4o3)CC[C@H]2C)c1` [Suvorexant] as the compound, how does the “Protection” value [1] read?
Its value is “protect mice from DSS induced acute ulcerative colitis disease”.

Which “Effect on severe spontaneous colitis” value [2] does the source give for “OxA: Orexin A peptide with two disulphide bridges, agonist of OX1R (QPLPDCCRQKTCSCRLYELLHGAGNHAAGILTL; disulfide (positions not given here); ends not checked; also: two disulphide bridges, places not given here; UniProt O43612 34-66, looked up)” here?
The value was “alleviated severe colitis”.

And the “Histological aspect of colonic mucosa (crypts aspect, crypt size, goblet cells, immune cells infiltration)” value ([2]; vs vehicle treated)?
Its value is “exhibited a normal colonic mucosa”.

What about the “Inhibition of cellular growth” value [3] of the same compound?
The value was “induced a strong inhibition of cellular growth”.

What about the “Apoptosis (annexin V-PE binding)” value [4] of the same compound?
Its value is “induced an apoptotic effect”.

And the “Protection” value [1]?
Its value is “protect mice from DSS induced acute ulcerative colitis disease”.

What about the “Inhibition of cellular growth” value [5] of the same compound?
The value was “induced a strong inhibition of cellular growth”.

And the “Ca2+ mobilization (agonist effect)” value ([6]; 1 μM)?
The value was “induced a large and transient Ca^2+ mobilization”.

And the “IL6 secretion in colon extracts” value [7]?
Its value is “reduces the secretion”.

And the “IL10 secretion in colon extracts” value [7]?
Its value is “has no effect”.

What about the “IL12 secretion in colon extracts” value [7] of the same compound?
The value was “has no effect”.

What about the “INFγ secretion in colon extracts” value [7] of the same compound?
The value was “has no effect”.

And the “TNFα secretion in colon extracts” value [7]?
Its value is “reduces the secretion”.

And the “IL1B in colon extracts” value ([7]; qPCR per FIG. 3)?
The value was “reduces the secretion”.

And the “IL8 homolog in colon extracts” value ([7]; qPCR per FIG. 3)?
The value was “reduces the secretion”.

What about the “Disease Activity Index (DAI) scored by weight, length of colon, diarrhea and blood in the stool” value [8] of the same compound?
Its value is “ameliorates”.

How did the “Inhibition of cellular growth” value [3] turn out when `Cc1cc(NC(=O)Nc2ccc(N(C)C)cc2)c2cc(F)cc(F)c2n1` [SB408124] was run?
Its value is “induced also a strong inhibition in a dose-dependent manner of cellular growth”.

What about the “Apoptosis (annexin V-PE binding)” value [4] of the same compound?
The value was “able to induce in a dose-dependent manner cell apoptosis”.

What about the “Inhibition of cellular growth” value [5] of the same compound?
Its value is “induced also a strong inhibition in a dose-dependent manner of cellular growth”.

And the “Effect on OxA-induced Ca2+ mobilization (antagonist effect)” value ([6]; 1 μM preincubation 1 h, then 1 μM OxA)?
The value was “totally abolished the induced-Ca^2+ mobilization”.
